Measurements as given in patent publication EP0726257A1, “1-(Hetero)Arylvinyl-5H-2,3-benzodiazepine derivatives useful for the treatment of central nervous system disorders, and benzopyrylium intermediates for their preparation” (EGIS GYOGYSZERGYAR RT., priority 1995, dated 1996).
Like-named read-outs stand apart in the source and are kept apart here.

How the values were obtained:
[1] = tested on: spontaneous motor activity (SMA) in mice; assay: Behavioural effects according to Irwin (decrease in spontaneous motor activity); type: in vivo; set-up: key: ++ strong; + moderate; +- slight decrease in spon-taneous motor activity [SMA]
Description: (§1) The behavioural effects of 1-[2'-(substituted) vinyl]-5H-2,3-benzodiazepine derivatives according to the invention and of reference substances were measured according to the method of Irwin (Psychopharmacology, 13, 222 [1968]). The results and the acute toxicity data (dead/treated animals, shown in brackets) can be seen in the following Table II
(§2) From the above Table II it can be taken that the 1-[2'-(substituted) vinyl]-5H-2,3-benzodiazepine derivatives according to the invention considerably decrease the spontaneous motor activity (SMA) in mice after intraperitoneal or oral administration.

Catalepsy in rats = assay: Cataleptic effect in rats (Morpurgo); type: in vivo; settings: p.o.
Description: (§3) The cataleptic effect of the compounds was measured both in mice (Schlichtegroll: Arzneim. Forsch., 8, 489, [1958]) and in rats (Morpurgo: Arch. Int. Pharmacodyn., 137, 87, [1962]).

[2] = tested on: spontaneous motor activity of mice; assay: Inhibition of spontaneous motor activity according to Borsy et al.; type: in vivo
Description: (§4) The potential antipsychotic activity of 1-[2'-(substituted) vinyl]-5H-2,3-benzodiazepine derivatives according to the invention and of reference substances was tested according to the method of Puech et al. (Psychopharmacology, 75, 84, [1981] by measuring their inhibiting effect on the "climbing" reaction induced by 5,6,6a,7-tetra-(hydro)-6-(methyl)-4H-dibenzo[de,g]quinoline-10,11-di-(ol){apomorphine}. The results have been expressed as ED50 values. Since the inhibition of the spontaneous motor activity (SMA) is an important characteristic of the antipsychotic drugs, the ED50 values of a number of compounds were determined according to the method of Borsy et al. (Arch. Int. Pharmacodyn., 124, 1, 196).
The effect of the 1-[2'-(substituted) vinyl]-5H-2,3-benzodiazepine derivatives according to the invention on the spontaneous motor activity was tested according to the method of Borsy et al. Groups consisting of 3 mice were treated orally with different doses of the compounds to be tested. Then the animals were placed into a 10-channel Dews system equipment, wherein the number of interruptions of infrared beam within 30 minutes was counted. […]

[3] = target: homophthalazine binding site; assay: Displacement of 3H-girisopam from the homophthalazine binding site in rat brain striatal membrane preparation; settings: displacing 5 nM 3H-girisopam
Description: Ki values were calculated according to the following equation: Ki = IC50 :(1 +([L])/(KD)), [formula] wherein KD is the dissociation constant of the labelled ligand-receptor complex, [L] is the concentration of the labelled ligand and IC50 is the half maximal inhibitory concentration of the test compound.

rats [4] = assay: Lick-conflict test (Vogel et al.), anxiolytic activity; type: in vivo; settings: Rattus norvegicus, po, read-out: Minimal effective dose [MED] Lick conflict
Text: (§5) The anxiolytic activity was studied in rats according to the "lick-conflict" test elaborated by Vogel et al. (Psychopharmacology, 21, 1, [1971] and the elevated plus-maze test described by Pellow (Pellow, J.: Neurosci. Meth. 14, 149, [1985]). The antiaggressive effect was investigated in mice using the "fighting behaviour" method of Tedeschi (J. Pharm. Exp. Ther., 125, 28, [1959]). The minimal effective dose (MED) values and the ED50 values obtained are shown in the following Table V.

Catalepsy in mice = assay: Cataleptic effect in mice (Schlichtegroll); type: in vivo; settings: p.o.
Description: as §3

mice [5] = assay: Acute toxicity (dead/treated animals) in the Irwin test; type: in vivo
Description: as §1, §2

[6] = tested on: "climbing" reaction induced by 5,6,6a,7-tetra-(hydro)-6-(methyl)-4H-dibenzo[de,g]quinoline-10,11-di-(ol){apomorphine}; assay: Inhibition of apomorphine-induced climbing according to Puech et al.; type: in vivo
Description: as §4

mice [7] = assay: Fighting behaviour method of Tedeschi, antiaggressive effect; type: in vivo; settings: Mus musculus, po, read-out: ED50 Fighting behaviour
Text: as §5

rats [8] = assay: Elevated plus-maze test (Pellow), anxiolytic activity; type: in vivo; settings: Rattus norvegicus
Text: as §5
The anxiolytic activity of these compounds was investigated in the elevated plus maze test. Male rats belonging to the Sprague Dawley strain and weighing 220 to 260 g were used as test animals. The test was carried out with the aid of a wooden plus-shaped maze elevated to a height of 50 cm and containing two enclosed and two open arms (50 cm long and 15 cm wide). After 60 minutes pretreatment the animals were placed into the maze and observed for 5 minutes. The drug effect was expressed as percent increase of the time spent on the open arms and number of open arm entries. The minimum effective dose (MED) which caused a significant increase of the time spent on the open arms was calculated for every substance [Pelow, S., Chopin, P., File, S.E., Briley, M.: J. Neurosci. Methods 14, 149 to 167 [1985]).

[9] = Mus musculus, po; read-out: Spontaneous motor activity SMA ED50
[10] = po; read-out: {apomorphine} Climbing ED50
[11] = ip, rats, read-out: Minimal effective dose [MED] Elevated + Maze
[12] = Mus musculus, po, 0.5 h; p.o., mice, interruptions of infrared beam within 30 minutes; read-out: ID50 (the source's name)
[13] = po, 1 h, p.o., elevated plus maze, Sprague Dawley rats, 60 minutes pretreatment, significant increase of time spent on open arms, read-out: Minimum effective dose
[14] = Mus musculus, po, read-out: Spontaneous motor activity SMA ED50
[15] = ip, read-out: Minimal effective dose [MED] Elevated + Maze

SMILES: COc1ccc(C=CC2=NN=C(C)Cc3cc(OC)c(OC)cc32)cc1OC [Example 3, 1-[3',4'-Di-(methoxy)-styryl]-4-[methyl]-7,8-di-[methoxy]-5H-2,3-benzodiazepine]
- Behaviour ([1]; 300 mg/kg i.p.): + +
- Behaviour ([1]; 1000 mg/kg p.o.): + +
- Catalepsy in rats Minimal effective dose [MED] (Catalepsy in rats): >100 mg/kg
- ED50 [2, 9]: 8.2 mg/kg
- Ki [3]: 11 nM
- minimal effective dose (rats [4]; rats): 0.1 mg/kg
- Catalepsy in mice Minimal effective dose [MED] (Catalepsy in mice): 100 mg/kg
- acute toxicity (dead/treated animals) (mice [5]; 300 mg/kg i.p.): 5/6
- acute toxicity (dead/treated animals) (mice [5]; 1000 mg/kg p.o.): 5/6
- ED50 [6, 10]: 6.7 mg/kg

SMILES: COc1ccc(C=CC2=NN=C(C)Cc3cc(OC)c(OC)cc32)c(OC)c1 [Example 5, 1-[2',4'-Di-(methoxy)-styryl)-4-[methyl]-7,8-di-[methoxy]-5H-2,3-benzodiazepine]
- Behaviour ([1]; 300 mg/kg i.p.): + +
- Behaviour ([1]; 1000 mg/kg p.o.): + +
- ED50 (mice [7]; mice): 15 mg/kg
- Ki [3]: 18 nM
- acute toxicity (dead/treated animals) (mice [5]; 300 mg/kg i.p.): 0/5
- acute toxicity (dead/treated animals) (mice [5]; 1000 mg/kg p.o.): 0/5
- minimal effective dose (rats [8]; [11]): 1.25 mg/kg

SMILES: COc1cc2c(cc1OC)C(C=Cc1cc(OC)c(OC)c(OC)c1)=NN=C(C)C2 [Example 6]
- Behaviour ([1]; 300 mg/kg i.p.): +
- Behaviour ([1]; 1000 mg/kg p.o.): +
- Catalepsy in rats Minimal effective dose [MED] (Catalepsy in rats): >100 mg/kg
- ED50 [2, 9]: 9.3 mg/kg
- Ki [3]: 11 nM
- minimal effective dose (rats [4]; rats): 1 mg/kg
- Catalepsy in mice Minimal effective dose [MED] (Catalepsy in mice): >100 mg/kg
- acute toxicity (dead/treated animals) (mice [5]; 300 mg/kg i.p.): 0/6
- acute toxicity (dead/treated animals) (mice [5]; 1000 mg/kg p.o.): 0/6
- ED50 [6, 10]: 15 mg/kg

SMILES: COc1cc2c(cc1OC)C(C=Cc1ccccc1F)=NN=C(C)C2 [Example 10]
- Behaviour ([1]; 300 mg/kg i.p.): +
- Behaviour ([1]; 1000 mg/kg p.o.): +
- Catalepsy in rats Minimal effective dose [MED] (Catalepsy in rats): >100 mg/kg
- Ki [3]: 9 nM
- minimal effective dose (rats [4]; rats): 3 mg/kg
- Catalepsy in mice Minimal effective dose [MED] (Catalepsy in mice): >100 mg/kg
- acute toxicity (dead/treated animals) (mice [5]; 300 mg/kg i.p.): 0/6
- acute toxicity (dead/treated animals) (mice [5]; 1000 mg/kg p.o.): 0/6

SMILES: COc1cc2c(cc1OC)C(C=Cc1ccc(C#N)cc1)=NN=C(C)C2 [Example 57]
- Catalepsy in rats Minimal effective dose [MED] (Catalepsy in rats): >100 mg/kg
- Ki [3]: 18 nM
- minimal effective dose (rats [4]; rats): 1 mg/kg
- Catalepsy in mice Minimal effective dose [MED] (Catalepsy in mice): >100 mg/kg

SMILES: COc1cc2c(cc1OC)C(C=Cc1cccs1)=NN=C(C)C2 [Example 70]
- Behaviour ([1]; 300 mg/kg i.p.): + +
- Behaviour ([1]; 1000 mg/kg p.o.): +
- Catalepsy in rats Minimal effective dose [MED] (Catalepsy in rats): >100 mg/kg
- Ki [3]: 13 nM
- minimal effective dose (rats [4]; rats): 0.3 mg/kg
- Catalepsy in mice Minimal effective dose [MED] (Catalepsy in mice): >100 mg/kg
- acute toxicity (dead/treated animals) (mice [5]; 300 mg/kg i.p.): 2/6
- acute toxicity (dead/treated animals) (mice [5]; 1000 mg/kg p.o.): 0/6

SMILES: COc1cc2c(cc1OC)C(C=Cc1ccc(N)cc1)=NN=C(C)C2 [Example 73, 1-[4'-(Amino)-styryl]-4-[methyl]-7,8-di-[methoxy]-5H-2,3-benzodiazepine]
- ED50 (mice [7]; mice): 6.4 mg/kg
- Ki [3]: 11 nM
- ED50 [6, 10]: 1.8 mg/kg
- minimal effective dose (rats [8]; [11]): 2.5 mg/kg

SMILES: COc1cc2c(cc1OC)C(C=Cc1ccc(NC(C)=O)cc1)=NN=C(C)C2 [Example 84, 1-[4'-(Acetylamino)-styryl]-4-[methyl]-7,8-di-[methoxy]-5H-2,3-benzodiazepine]
- Behaviour ([1]; 300 mg/kg i.p.): + +
- Behaviour ([1]; 1000 mg/kg p.o.): + +
- Ki [3]: 5 nM
- acute toxicity (dead/treated animals) (mice [5]; 300 mg/kg i.p.): 0/5
- acute toxicity (dead/treated animals) (mice [5]; 1000 mg/kg p.o.): 1/5
- ED50 [6, 10]: 11 mg/kg

SMILES: CC1=NN=C(C=Cc2ccc(F)cc2)c2cc3c(cc2C1)OCO3 [Example 86, 1-[4'-(Fluoro)-styryl]-4-[methyl]-7,8-[methylenedioxy]-5H-2,3-benzodiazepine]
- ED50 [2, 12]: > 100 mg/kg
- minimal effective dose (rats [8]; [13]): 0.003 mg/kg

SMILES: CC1=NN=C(C=Cc2ccc(C(F)(F)F)cc2)c2cc3c(cc2C1)OCO3 [Example 87, 1-[4'-(Trifluoromethyl)-styryl]-4-[methyl]-7,8-[methylenedioxy]-5H-2,3-benzodiazepine]
- ED50 [2, 12]: > 100 mg/kg
- minimal effective dose (rats [8]; [13]): 0.1 mg/kg

SMILES: CC1=NN=C(C=Cc2cccc(F)c2)c2cc3c(cc2C1)OCO3 [Example 89, 1-[3'-(Fluoro)-styryl]-4-[methyl]-7,8-[methylenedioxy]-5H-2,3-benzodiazepine]
- minimal effective dose (rats [8]; [13]): 0.3 mg/kg

SMILES: CC1=NN=C(C=Cc2ccccc2F)c2cc3c(cc2C1)OCO3 [Example 90, 1-[2'-(Fluoro)-styryl)-4-[methyl]-7,8-[methylenedioxy]-5H-2,3-benzodiazepine]
- minimal effective dose (rats [8]; [13]): 0.3 mg/kg

SMILES: CC1Cc2cc3c(cc2C(C=Cc2ccc(F)cc2)=NN1)OCO3 (centres unmarked) [Example 92, 1-[4'-(Fluoro)-styryl]-4-[methyl]-7,8-[methylenedioxy]-3,4-di-[hydro]-5H-2,3-benzodiazepine]
- minimal effective dose (rats [8]; [13]): 1 mg/kg

SMILES: CNC1=Nc2ccc(Cl)cc2C(c2ccccc2)=[N+]([O-])C1 [chlorodiazepoxide, 7-(chloro)-2-(methylamino)-5-(phenyl)-3H-1,4-benzodiazepine-4-(oxide), reference compound]
- ED50 (mice [7]): 9.2 mg/kg
- ED50 [2, 14]: 56 mg/kg
- minimal effective dose (rats [4]): 5 mg/kg
- {apomorphine} Climbing ED50 ([6]; p.o.): inactive
- minimal effective dose (rats [8]; [15]): 2.5 mg/kg

SMILES: COc1cc2c(cc1OC)C(c1cccc(Cl)c1)=NN=C(C)C2 [girisopam, 1-(3'-〈chloro〉-phenyl)-4-(methyl)-7,8-di-(methoxy)-5H-2,3-benzodiazepine, reference compound]
- Behaviour ([1]; 300 mg/kg i.p.): +-
- ED50 (mice [7]): 7.7 mg/kg
- ED50 [2, 14]: 10 mg/kg
- Ki [3]: 40 nM
- minimal effective dose (rats [4]): 10 mg/kg
- acute toxicity (dead/treated animals) (mice [5]; 300 mg/kg i.p.): 0/6
- ED50 ([6]; po, read-out: {apomorphine} Climbing ED50): 12 mg/kg
- minimal effective dose (rats [8]; [15]): 12.5 mg/kg
